From patent US20120095739A1, “METHOD FOR DETERMINING THE EFFICACY OF A COMBINATION THERAPY” (priority 2009, published 2012)

System: HIV-1
Settings: double robust estimation; for Weight (drug weight, PI): difference in viral load response (log scale) vs lopinavir after 8 weeks of stable treatment
From the text: Therefore, statistical models were applied to handle these differences. […] E.g.

Substance	Weight (drug weight, PI)	difference in viral load change vs patients taking lopinavir (after 8 weeks of stable treatment) [log viral load]
lopinavir [LPV/r]	0	–
atazanavir [ATV/r]	−0.02	−0.02
